Experimental data as given in the OligoGym collection.
Where “and” joins values, the source holds several entries; their conditions need not be identical. Equal entries are not always repeated. After the bases stand the sugars from the 5' end (letter, count) and the backbone: PS all phosphorothioate, else s phosphorothioate and o phosphodiester by linkage. Methylation of C is not given here. k = constrained ethyl (cEt); d = 2'-deoxy (DNA)

Molecular target: MALAT1
Conditions: ASO, A431, 0.005 µM

Sequence | target mRNA inhibition
GAAACCGATTATGGAT (sugars k3 d10 k3, PS) | 34%
GAAACCTACAACACCC (sugars k3 d10 k3, PS) | 20%
GAAAGTGCCATGGTTG (sugars k3 d10 k3, PS) | 41%
GAACAACTCGCATCAC (sugars k3 d10 k3, PS) | 15%
GAACCACAACAATTTA (sugars k3 d10 k3, PS) | 19%
GAACCGGAGCAGGAAG (sugars k3 d10 k3, PS) | 28%
GAAGAATACCATCTGA (sugars k3 d10 k3, PS) | 5%
GAAGAATCCCCCCCAA (sugars k3 d10 k3, PS) | 11%
GAAGAGATACCTGTCT (sugars k3 d10 k3, PS) | -22%
GAAGAGCCAAGCACTC (sugars k3 d10 k3, PS) | -9%
GAAGTCTCGGGCTGCA (sugars k3 d10 k3, PS) | 6%
GAATACCATCTGAAAG (sugars k3 d10 k3, PS) | 16%
GAATGTTTCTTGTCAC (sugars k3 d10 k3, PS) | 43%
GAATTACTTCCGTTAC (sugars k3 d10 k3, PS) | 36%
GACCCTACTGAAGAGC (sugars k3 d10 k3, PS) | 32%
GACCTCGACACCATCG (sugars k3 d10 k3, PS) | 44%
GACCTGAAGTCAAGAC (sugars k3 d10 k3, PS) | -1%
GACGGTTGAGAAGTGG (sugars k3 d10 k3, PS) | 25%
GACTAAAGGCTTCAGT (sugars k3 d10 k3, PS) | 15%
GACTCTGGGAAACCTG (sugars k3 d10 k3, PS) | 1%
GAGAAATCGGAGCAGC (sugars k3 d10 k3, PS) | 15%

Sequence | target mRNA inhibition
GAGAAGAATCCCCCCC (sugars k3 d10 k3, PS) | 17%
GAGATTTGGGCTTTAT (sugars k3 d10 k3, PS) | 34% and 33%
GAGCAGCACGGGCTGT (sugars k3 d10 k3, PS) | 14%
GAGGCTGACACTTCTC (sugars k3 d10 k3, PS) | -10%
GAGTTTGAGTGGTTTT (sugars k3 d10 k3, PS) | 26%
GATCACTTTAGAGGCT (sugars k3 d10 k3, PS) | -8%
GATCTGGTCCATTAAA (sugars k3 d10 k3, PS) | 25%
GATGTATATAGTTCAA (sugars k3 d10 k3, PS) | 7%
GATTAGTAGTCAAAGC (sugars k3 d10 k3, PS) | 24%
GATTCATGAGTATAAG (sugars k3 d10 k3, PS) | 50%
GATTTGAACCCCGTCC (sugars k3 d10 k3, PS) | -2%
GCAAAATGGCGGACTT (sugars k3 d10 k3, PS) | -4%
GCAAAATGTACTCAGC (sugars k3 d10 k3, PS) | 23%
GCAAATCGCCATGGAA (sugars k3 d10 k3, PS) | 21%
GCAAGTTAAACTTATC (sugars k3 d10 k3, PS) | 42%
GCACTCATATGCAATT (sugars k3 d10 k3, PS) | 6%
GCACTTTTAAAGTCTG (sugars k3 d10 k3, PS) | 74% and 91%
GCAGAGTTTGAGTGGT (sugars k3 d10 k3, PS) | -9%
GCAGGGACGGTTGAGA (sugars k3 d10 k3, PS) | 8%
GCATCTAGGCCATCAT (sugars k3 d10 k3, PS) | 57%
GCATTCCCACCCAAAA (sugars k3 d10 k3, PS) | 34%

Sequence | target mRNA inhibition
GCCAACAGCACAGCGG (sugars k3 d10 k3, PS) | 8%
GCCAAGCCAAGCCGCC (sugars k3 d10 k3, PS) | 14%
GCCAAGCCGCCTGCTA (sugars k3 d10 k3, PS) | 20%
GCCATGGTTGATATTT (sugars k3 d10 k3, PS) | 9%
GCCCCCCAGTTGCCGC (sugars k3 d10 k3, PS) | -35%
GCCGCCTCTTAAAGCA (sugars k3 d10 k3, PS) | -11%
GCCTACCGCACAGCTC (sugars k3 d10 k3, PS) | 26%
GCCTATCTTCTCCAGT (sugars k3 d10 k3, PS) | 27%
GCCTCAATCCCACACC (sugars k3 d10 k3, PS) | 2%
GCCTTGCAGGGACGGT (sugars k3 d10 k3, PS) | -10%
GCGGGATCAGAACAGT (sugars k3 d10 k3, PS) | 40%
GCTACTGGCTGCATCG (sugars k3 d10 k3, PS) | 43%
GCTCTATACTTTGAAG (sugars k3 d10 k3, PS) | 51%
GCTGAGTGTTCCTGCA (sugars k3 d10 k3, PS) | 22%
GCTGCATCGAGGTGAG (sugars k3 d10 k3, PS) | 24%
GCTGGTTATGACTCAG (sugars k3 d10 k3, PS) | 9%
GCTTAAGAGGGCAGGA (sugars k3 d10 k3, PS) | -7%
GCTTTCCCTGTGGCCT (sugars k3 d10 k3, PS) | 10%
GGAAATCTTAGAAACG (sugars k3 d10 k3, PS) | 36%
GGAATACTCTTCCAAG (sugars k3 d10 k3, PS) | 6%
GGACATCTCTTCCACA (sugars k3 d10 k3, PS) | 24%

Sequence | target mRNA inhibition
GGACATTGCCTCTTCA (sugars k3 d10 k3, PS) | 54%
GGACTTTCTCCCCCAA (sugars k3 d10 k3, PS) | -5%
GGAGATCAGCTTCCGC (sugars k3 d10 k3, PS) | -7%
GGATCCAAGCTACTGG (sugars k3 d10 k3, PS) | 18%
GGATTCTAGACAGACC (sugars k3 d10 k3, PS) | 44%
GGATTTTTACCAACCA (sugars k3 d10 k3, PS) | 14%
GGCAAATCGCCATGGA (sugars k3 d10 k3, PS) | 22%
GGCAGTTATATTAGGT (sugars k3 d10 k3, PS) | 16%
GGCCTTTTCTAACATA (sugars k3 d10 k3, PS) | 2%
GGCTATCAAATTCATT (sugars k3 d10 k3, PS) | 42%
GGCTATTACCTGAAAA (sugars k3 d10 k3, PS) | 6%
GGCTGGTTATGACTCA (sugars k3 d10 k3, PS) | 40%
GGCTTTAAATGACGCA (sugars k3 d10 k3, PS) | 17%
GGGAAAAGTGGTTGCC (sugars k3 d10 k3, PS) | 9%
GGGATTTGAACCCCGT (sugars k3 d10 k3, PS) | -1%
GGGTTATGCTTATTCC (sugars k3 d10 k3, PS) | 28%
GGTCAGGAGAAAGTGC (sugars k3 d10 k3, PS) | 18%
GGTTAAGCACTTTTAA (sugars k3 d10 k3, PS) | 38%
